Here are results for ten compounds from ChEMBL document CHEMBL1201862, “PubChem BioAssay data set” (2004).

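Method: 48-hour compound exposure of cells in 96-well plates, five concentrations, linear interpolation of endpoints. GI50 marks 50% less growth.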 Active and inactive are the calls of the source. Rule as the data show it: active = GI50 up to about 1.1 µM and inactive = higher. Bounds are passed on as bounds.

What all share (assay): inhibition of tumour cell growth, NCI panel, 48 h
Test [1] concerns K562.
Test [2] has as its system MCF7.
The test system of test [3] is MDA-N.
The test system of test [4] is NCI-H460.
The subject of test [5] is NCI/ADR-RES.
Test [6] relates to PC-3.
The test system of test [7] is RPMI-8226.
Test [8] concerns SK-OV-3.
Test [9] deals with SN12C.
Test [10] concerns SR.
Test [11] deals with T47D.
The subject of test [12] is TK-10.
The test system of test [13] is 786-0.
Test [14] has as its system CAKI-1.
Test [15] relates to OVCAR-5.
Test [16] relates to BT-549.

For the compound `CC(C)N1CSC(=S)N(Cc2ccccc2)C1`, the GI50 in test [1] was 2.48 µM (inactive); in test [2] it was 4.16 µM (inactive); in [3], 2.42 µM (inactive); in test [4], > 10 µM (inactive); in [5], > 10 µM (inactive); in test [6], 3.75 µM (inactive). For the same compound, the GI50 in test [7] is 2.58 µM (inactive); in test [8], > 10 µM (inactive); in test [9], 4.49 µM (inactive); in test [10] it was 1.64 µM (inactive); in [11] it was 4.29 µM (inactive); in test [12], 3.61 µM (inactive).
Regarding `N#C/C(=C\NC(=S)Nc1ccc(S(=O)(=O)Nc2ccccn2)cc1)C(N)=O`, the GI50 in test [13] was > 100 µM (inactive); in test [14], > 100 µM (inactive); in test [1], 47.9 µM (inactive); in test [2], > 100 µM (inactive); in test [3], > 100 µM (inactive); in test [4], > 100 µM (inactive). In addition, the GI50 in [5], in test [15], in test [6], in test [7], in [8] and in [9] was > 100 µM (inactive) throughout. Besides, the GI50 in test [10] and in [12] was > 100 µM (inactive) throughout.
With `CCOC(=O)C1=C(C)N(c2ccc(OC)cc2)C2(O)C=CC(O)=C3C(=O)c4ccccc4C(=O)C312` (stereo not given), the GI50 in [16] is 14 µM (inactive); in [14], 8.38 µM (inactive); in test [1] it was 12.6 µM (inactive); in test [2], 6.03 µM (inactive); in [3], 8.61 µM (inactive); in test [4], 11.5 µM (inactive). The GI50 was 3.01 µM (inactive) in [5]; 15.8 µM (inactive) in [15]; 5.53 µM (inactive) in test [6]; 2.44 µM (inactive) in [7]; 13.4 µM (inactive) in test [8]; 14.8 µM (inactive) in test [9]. Further, the GI50 is 12.5 µM (inactive) in test [11] and 11 µM (inactive) in [12].
As to `CCOC(=O)c1cn(CC)c(=O)n2c1nc1ccccc12`, the GI50 in test [13] was 58.5 µM (inactive); in test [16] it was 56.9 µM (inactive); in [14], 57.9 µM (inactive); in test [1] it was 42.1 µM (inactive); in test [2] it was 54.6 µM (inactive); in test [3], > 100 µM (inactive). Also, the GI50 in [4] was 35.4 µM (inactive); in test [5], 62.5 µM (inactive); in test [15], > 100 µM (inactive); in test [6], > 100 µM (inactive); in [7] it was 24.4 µM (inactive); in [9], > 100 µM (inactive). In addition, the figures for the GI50 in test [10] and in test [11] were 28.4 µM (inactive) and 63.5 µM (inactive), respectively.
In the case of `CC1(C)C(N2CCOCC2)CS1(=O)=O` (stereo not given), the GI50 in [13], in test [16], in test [14], in [1], in test [2] and in [3] was > 10 µM (inactive) throughout. For the same compound, the GI50 in test [4], in test [5], in test [15], in [6], in [7] and in test [8] was > 10 µM (inactive) throughout. The GI50 in test [9], in test [11] and in test [12] was > 10 µM (inactive) each time.
For the compound `Cc1cc(N(CCOS(C)(=O)=O)CCOS(C)(=O)=O)ccc1C=O`, the GI50 in test [16] was 15.2 µM (inactive); in test [14], 0.127 µM (active); in test [1], 9.93 µM (inactive); in test [2] it was 1.22 µM (inactive); in [3] it was 11.4 µM (inactive); in test [4], 0.078 µM (active). Further, the GI50 was 11.7 µM (inactive) in test [5]; 6.7 µM (inactive) in test [15]; 20 µM (inactive) in test [6]; 4.02 µM (inactive) in test [7]; 1.47 µM (inactive) in test [9]; 2.91 µM (inactive) in test [12].
With `CC(=O)NC(c1nc2cc(C)c(C)cc2[nH]1)c1nc2cc(C)c(C)cc2[nH]1`, the GI50 in [16] was 23.2 µM (inactive); in [14] it was 20.3 µM (inactive); in test [1] it was 1.02 µM (active); in test [2] it was 23.9 µM (inactive); in test [3], 19.1 µM (inactive); in test [4], 11.7 µM (inactive). The GI50 in test [5] was 28.9 µM (inactive); in test [15], 41.7 µM (inactive); in test [6], 24.8 µM (inactive); in test [7], 4.57 µM (inactive); in [8] it was 17.7 µM (inactive); in [9], 15.9 µM (inactive). Also, the GI50 in test [11] was 43 µM (inactive); in [12], 28.1 µM (inactive).
Take `CC1(c2sccc2Cl)CC(c2sccc2Cl)=C(C#N)C(=C(C#N)C#N)N1` (stereo not given): the GI50 is 18.4 µM (inactive) in test [13]; 17.8 µM (inactive) in test [16]; 20.2 µM (inactive) in test [14]; 22.8 µM (inactive) in test [2]; 17.3 µM (inactive) in test [3]; 19 µM (inactive) in test [4]. Besides, the GI50 in [5] was 22.8 µM (inactive); in test [15] it was 22.3 µM (inactive); in test [6], 18.7 µM (inactive); in test [7], 36.1 µM (inactive); in test [8] it was 17.5 µM (inactive); in test [9], 20.2 µM (inactive). Moreover, the GI50 in [11] is 14.2 µM (inactive); in test [12], 17.2 µM (inactive).
Consider `Nc1nc(N)c(N=O)c(OCC2CCCCC2)n1`, for which the GI50 in test [13] was 11.6 µM (inactive); in [16] it was 7.82 µM (inactive); in test [14], 7.55 µM (inactive); in test [1], 21.9 µM (inactive); in [2], 4.3 µM (inactive); in test [3], 11 µM (inactive). Besides, the GI50 in test [4] is 6.17 µM (inactive); in [5], 18.9 µM (inactive); in test [15] it was 9.71 µM (inactive); in [6], 6.41 µM (inactive); in test [7], 6.52 µM (inactive); in test [8], 19 µM (inactive). Besides, the GI50 was 5.15 µM (inactive) in test [9], 4.76 µM (inactive) in [10], 5.57 µM (inactive) in test [11] and 6.64 µM (inactive) in [12].
On to `Cc1[nH]n(C2=NCCN2)c(=O)c1Cc1ccccc1`, for which the GI50 in test [13], in [16], in [14], in test [1], in [2] and in [3] was > 100 µM (inactive) throughout. Moreover, the GI50 in test [4], in [5], in test [15], in [6], in test [7] and in test [8] was > 100 µM (inactive) in each case. In addition, the GI50 in test [10], in test [11] and in test [12] was > 100 µM (inactive) each time.
